Measurements: patent EP0929544B1, “TRICYCLIC ANTITUMOR COMPOUNDS BEING FARNESYL PROTEIN TRANSFERASE INHIBITORS” (SCHERING CORPORATION, priority 1996, dated 1998)
Read-outs that look alike come from different tables or passages of the source.

Target: T1, Farnesyl protein transferase (FPT) (Rattus norvegicus, UniProt Q02293+Q04631)
T1 construct: Farnesyl protein transferase (FPT) was partially purified from rat brain; from tissue; host or cells: rat brain
Assay: In vitro enzyme assay: inhibition of farnesyl protein transferase (transfer of [3H]farnesyl from [3H]farnesyl pyrophosphate to Ras-CVLS)
Format: biochemical
Details: for FPT inhibition (percent inhibition): @ 0.06 µg/µL; for inhibition at 0.11 µM: @ 110 nM
From the text: 1. In vitro enzyme assays: Inhibition of farnesyl protein transferase and geranylgeranyl protein transferase.
Farnesyl protein transferase (FPT) was partially purified from rat brain by ammonium sulfate fractionation followed by Q-Sepharose (Pharmacia, Inc.) anion exchange chromatography essentially as described by Yokoyama et al (Yokoyama, K., et al., (1991), A protein geranylgeranyltransferase from bovine brain: Implications for protein prenylation specificity, Proc. Natl. Acad. Sci USA 88: 5302-5306, the disclosure of which is incorporated herein by reference thereto). Human famesyl protein transferase was also expressed in E. coli, using cDNA clones encoding both the a and b subunits. The methods used were similar to those published (Omer, C. et al., (1993), Characterization of recombinant human farnesyl protein transferase: Cloning, expression, famesyl diphosphate binding, and functional homology with yeast prenyl-protein transferases, Biochemistry 32:5167-5176). Human famesyl protein transferase was partially-purified from the soluble protein fraction of E. coli as described above. […] Two forms of val^12-Ha-Ras protein were prepared as substrates for these enzymes, differing in their carboxy terminal sequence. One form terminated in cysteine-valine-leucine-serine (Ras-CVLS) the other in cystein-valine-leucine-leucine (Ras-CVLL). Ras-CVLS is a substrate for the famesyl protein transferase while Ras-CVLL is a substrate for geranylgeranyl protein transferase I. The cDNAs encoding these proteins were constructed so that the proteins contain an amino-terminal extension of 6 histidine residues. Both proteins were expressed in Escherichia coli and purified using metal chelate affinity chromatography. The radiolabelled isoprenyl pyrophosphate substrates, [^3H]farnesyl pyrophosphate and [^3H]geranylgeranyl pyrophosphate, were purchased from DuPont/New England Nuclear.
Several methods for measuring famesyl protein transferase activity have been described (Reiss et al 1990, Cell 62: 81; Schaber et al 1990, J. Biol. Chem. 265: 14701; Manne et al 1990, PNAS 87: 7541; and Barbacid & Manne 1993, U.S. Patent No. 5,185,248). […] The reaction was allowed to proceed for 30 minutes at room temperature and then stopped with 0.5 ml of 4% sodium dodecyl sulfate (SDS) followed by 0.5 ml of cold 30% TCA. Samples were allowed to sit on ice for 45 minutes and precipitated Ras protein was then collected on GF/C filter paper mats using a Brandel cell harvester. Filter mats were washed once with 6% TCA, 2% SDS and radioactivity was measured in a Wallac 1204 Betaplate BS liquid scintillation counter. Percent inhibition was calculated relative to the DMSO vehicle control.

[1] = FPT INHIBITION, read-out: FPT IC50
[2] = read-out: FPT inhibition (percent inhibition)
[3] = read-out: FPT IC50, FPT INHIBITION

T1 sequence (Q02293 whole entry, one chain of several): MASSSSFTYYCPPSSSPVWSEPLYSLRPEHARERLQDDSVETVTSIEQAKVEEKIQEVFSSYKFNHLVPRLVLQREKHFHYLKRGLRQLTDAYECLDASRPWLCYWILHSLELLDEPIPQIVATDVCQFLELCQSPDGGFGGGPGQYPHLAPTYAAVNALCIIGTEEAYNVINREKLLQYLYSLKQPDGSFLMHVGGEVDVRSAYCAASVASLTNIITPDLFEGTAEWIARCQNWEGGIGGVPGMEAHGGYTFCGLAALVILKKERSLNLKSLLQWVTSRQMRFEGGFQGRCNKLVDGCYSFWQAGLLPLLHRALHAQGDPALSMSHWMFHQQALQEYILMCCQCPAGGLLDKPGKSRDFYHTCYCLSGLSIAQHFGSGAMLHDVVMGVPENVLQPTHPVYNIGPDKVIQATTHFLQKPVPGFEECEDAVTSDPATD

## CN(C)CC(=O)N1CCC(C2c3ncc(Br)cc3CCc3cc(Cl)cc(Cl)c32)CC1 (single isomer, unassigned) [Example 4]
[1]
  IC50: 380 nM

## CN(C)CCC(=O)N1CCC(C2c3ncc(Br)cc3CCc3cc(Cl)cc(Cl)c32)CC1 (single isomer, unassigned) [Example 5]
[1]
  IC50: 56 nM

## CN(C)CCCC(=O)N1CCC(C2c3ncc(Br)cc3CCc3cc(Cl)cc(Cl)c32)CC1 (single isomer, unassigned) [Example 6]
  IC50: 6.5 nM

## CN(C)CCCCC(=O)N1CCC(C2c3ncc(Br)cc3CCc3cc(Cl)cc(Cl)c32)CC1 (single isomer, unassigned) [Example 7]
[1]
  IC50: 22 nM

## CCN(CC)CCC(=O)N1CCC(C2c3ncc(Br)cc3CCc3cc(Cl)cc(Cl)c32)CC1 (single isomer, unassigned) [Example 8]
[1]
  IC50: 14 nM

## O=C(CCN1CCCCC1)N1CCC(C2c3ncc(Br)cc3CCc3cc(Cl)cc(Cl)c32)CC1 (single isomer, unassigned) [Example 9]
[1]
  IC50: 6 nM

## O=C(CCN1C(=O)CCC1=O)N1CCC(C2c3ncc(Br)cc3CCc3cc(Cl)cc(Cl)c32)CC1 (single isomer, unassigned) [Example 11]
[1]
  IC50: 76 nM

## NC(=O)CCC(=O)N1CCC(C2c3ncc(Br)cc3CCc3cc(Cl)cc(Cl)c32)CC1 (single isomer, unassigned) [Example 12]
[1]
  IC50: 61 nM

## CC(=O)NCCCC(=O)N1CCC(C2c3ncc(Br)cc3CCc3cc(Cl)cc(Cl)c32)CC1 (single isomer, unassigned) [Example 15]
[1]
  IC50: 63 nM

## O=C(NCCCC(=O)N1CCC(C2c3ncc(Br)cc3CCc3cc(Cl)cc(Cl)c32)CC1)Nc1ccccc1 (single isomer, unassigned) [Example 16]
[1]
  IC50: > 100 nM

## O=C(CCCC(=O)N1CCC(C2c3ncc(Br)cc3CCc3cc(Cl)cc(Cl)c32)CC1)Nc1cccnc1 (single isomer, unassigned) [Example 17]
[1]
  IC50: ~100 nM

## O=C(CCCC(=O)N1CCC(C2c3ncc(Br)cc3CCc3cc(Cl)cc(Cl)c32)CC1)Nc1ccccc1 (single isomer, unassigned) [Example 19]
  FPT inhibition (percent inhibition): 21%@ 0.06 µg/µL

## O=C(CCCC(=O)N1CCC(C2c3ncc(Br)cc3CCc3cc(Cl)cc(Cl)c32)CC1)Nc1ccc(Cl)cc1 (single isomer, unassigned) [Example 20]
@ 92 nM, read-out: FPT inhibition (percent inhibition)
  inhibition at 0.092 µM: 0%

## O=C(CCCC(=O)N1CCC(C2c3ncc(Br)cc3CCc3cc(Cl)cc(Cl)c32)CC1)NCc1ccccc1 (single isomer, unassigned) [Example 21]
  FPT inhibition (percent inhibition): 35%@ 0.06 µg/µL

## O=C(NCCCCC(=O)N1CCC(C2c3ncc(Br)cc3CCc3cc(Cl)cc(Cl)c32)CC1)c1ccccc1 (single isomer, unassigned) [Example 22]
  FPT inhibition (percent inhibition): 41%@ 0.06 µg/µL

## O=C(CCCCCN1C(=O)C=CC1=O)N1CCC(C2c3ncc(Br)cc3CCc3cc(Cl)cc(Cl)c32)CC1 (single isomer, unassigned) [Example 23]
[1]
  IC50: 620 nM

## O=C(NCCCC(=O)N1CCC(C2c3ncc(Br)cc3CCc3cc(Cl)cc(Cl)c32)CC1)c1ccncc1 (single isomer, unassigned) [Example 24]
  FPT inhibition (percent inhibition): 20 %@ 0.06 µg/µL

## CC(C)(C)OC(=O)NCCCC(=O)N1CCC(C2c3ncc(Br)cc3CCc3cc(Cl)cc(Cl)c32)CC1 (single isomer, unassigned) [Example 25]
@ 330nM, read-out: FPT inhibition (percent inhibition)
  inhibition at 0.33 µM: 47%

## CC(C)(C)OC(=O)NCC(=O)N1CCC(C2c3ncc(Br)cc3CCc3cc(Cl)cc(Cl)c32)CC1 (single isomer, unassigned) [Example 26]
[1]
  IC50: 540 nM

## O=C(CCCN1C(=O)c2ccncc2C1=O)N1CCC(C2c3ncc(Br)cc3CCc3cc(Cl)cc(Cl)c32)CC1 (single isomer, unassigned) [Example 33, 4-(8,10-DICHLORO-3-BROMO-6,11-DIHYDRO-5H-BENZO[5,6]CYCLO-HEPTA[1,2-b]PYRIDIN-11-YL)-1-[4-(1,3-DIHYDRO-1,3-DIOXO-2H-PYRROLO-[3,4c]-PYRIDINE-2-YL)-1-OXOBUTYL]PIPERIDINE]
[2]
  inhibition at 0.0934 µM: 38.7%

## NC(=O)N1CCC(C2c3ncc(Br)cc3CCc3cc(Cl)cc(Cl)c32)CC1 (single isomer, unassigned; (+)) [Example 1, (+)-4-(3-BROMO-8,10-DICHLORO-6,11-DIHYDRO-5H-BENZO[5,6]CYCLOHEPTA[1,2-b]PYRIDIN-11-YL)-1-PIPERIDINE CARBOXAMIDE, reference compound]
[1]
  IC50: 390 nM

## NCC(=O)N1CCC(C2c3ncc(Br)cc3CCc3cc(Cl)cc(Cl)c32)CC1 (single isomer, unassigned; (+)) [Example 3, (+)-1-(AMINOACETYL)-4-(3-BROMO-8,10-DICHLORO-6,11-DIHYDRO-5H-BENZO[5,6]CYCLO-HEPTA[1,2-b]PYRIDIN-11-YL) PIPERIDINE]
[1]
  IC50: 1100 nM

## NCCCC(=O)N1CCC(C2c3ncc(Br)cc3CCc3cc(Cl)cc(Cl)c32)CC1 (single isomer, unassigned; (+)) [Example 27, (+)-1-(4-AMINO-1-OXOBUTYL)-4-(3-BROMO-8,10-DICHLORO-6,11-DIHYDRO-5H-BENZO[5,6]CYCLO-HEPTA[1,2-b]PYRIDIN-11-YL) PIPERIDINE]
[1]
  IC50: 130 nM

## CS(=O)(=O)NCC(=O)N1CCC(C2c3ncc(Br)cc3CCc3cc(Cl)cc(Cl)c32)CC1 (single isomer, unassigned; (+)) [Example 28]
[2]
  inhibition at 0.11 µM: 43%

## NC(=O)NCC(=O)N1CCC(C2c3ncc(Br)cc3CCc3cc(Cl)cc(Cl)c32)CC1 (single isomer, unassigned; (+)) [Example 30]
[2]
  inhibition at 0.11 µM: 36%

## NC(=O)NCCCC(=O)N1CCC(C2c3ncc(Br)cc3CCc3cc(Cl)cc(Cl)c32)CC1 (single isomer, unassigned; (+)) [Example 31]
[1]
  IC50: 58 nM

## O=C(CCCN1C(=O)c2ccccc2C1=O)N1CCC(C2c3ncc(Br)cc3CCc3cc(Cl)cc(Br)c32)CC1 (single isomer, unassigned; (+)) [Example 32, (+)-4-(3,10-DIBROMO-8-CHLORO-6,11-DIHYDRO-5H-BENZO[5,6]CYCLO-HEPTA[1,2-b]PYRIDIN-11-YL)-1-[4-(1,3-DIHYDRO-1,3-DIOXO-2H-ISOINDOL-2-YL)-1-OXOBUTYL)PIPERIDINE]
@ 88 nM, read-out: FPT inhibition (percent inhibition)
  inhibition at 0.088 µM: 12%

## CCOC(=O)CC(=O)N1CCC([C@H]2c3ncc(Br)cc3CCc3cc(Cl)cc(Br)c32)CC1 [Example 45, (+)-ETHYL 4-(3,10-DIBROMO-8-CHLORO-6,11-DIHYDRO-5H-BENZO[5,6]CYCLO-HEPTA[1,2-b]PYRIDIN-11(R)-YL)-BETA-OXO-1-PIPERIDININE PROPANOATE]
[1]
  IC50: 28 nM

## O=C(O)CC(=O)N1CCC([C@H]2c3ncc(Br)cc3CCc3cc(Cl)cc(Br)c32)CC1 [Example 46, (+)-SODIUM 4-(3,10-DIBROMO-8-CHLORO-6,11-DIHYDRO-5H-BENZO[5,6]CYCLO-HEPTA[1,2-b]PYRIDIN-11(R)-YL)-BETA-OXO-1-PI[…]]
[3]
  IC50: 78 nM

## NC(=O)CC(=O)N1CCC([C@H]2c3ncc(Br)cc3CCc3cc(Cl)cc(Br)c32)CC1 [Example 47, 4-(3,10-DIBROMO-8-CHLORO-6,11-DIHYDRO-5H-BENZO[5,6]CYCLO-HEPTA[1,2-b]PYRIDIN-1(R)-YL)-BETA-OXO-1-PIPERIDININE PROPANAMIDE]
[1]
  IC50: 68 nM

## COC(=O)CCC(=O)N1CCC([C@H]2c3ncc(Br)cc3CCc3cc(Cl)cc(Br)c32)CC1 [Example 48, (+)-METHYL 4-(3,10-DIBROMO-8-CHLORO-6,11-DIHYDRO-5H-BENZO[5,6]CYCLO-HEPTA[1,2-b]PYRIDIN-11(R)-YL)-GAMMA-OXO-1-PI[…]]
[3]
  IC50: 9 nM

## O=C(O)CCC(=O)N1CCC([C@H]2c3ncc(Br)cc3CCc3cc(Cl)cc(Br)c32)CC1 [Example 49, (+)-SODIUM 4-(3,10-DIBROMO-8-CHLORO-6,11-DIHYDRO-5H-BENZO[5,6]CYCLO-HEPTA[1,2-b]PYRIDIN-11(R)-YL)-GAMMA-OXO-1-PI[…]]
[3]
  IC50: 270 nM

## NC(=O)CCC(=O)N1CCC([C@H]2c3ncc(Br)cc3CCc3cc(Cl)cc(Br)c32)CC1 [Example 50, (+)-4-(3,10-DIBROMO-8-CHLORO-6,11-DIHYDRO-5H-BENZO[5,6]CYCLO-HEPTA[1,2-b]PYRIDIN-11(R)-YL)-GAMMA-OXO-1-PIPERIDININE BUTANAMIDE]
[1]
  IC50: 14 nM
